Measured values published in ChEMBL document CHEMBL1221235, “Novel Notch-sparing gamma-secretase inhibitors derived from a peroxisome proliferator-activated receptor agonist library” (Bioorg Med Chem Lett, 2010).
Active and inactive are the calls of the source. No cut-off for these calls is given here.

Assays:
[1] = molecular target: T1, Gamma-secretase (Homo sapiens) (UniProt Q96BI3+Q9NZ42+Q8WW43+P49768+Q92542+P49810); assay: Inhibition of gamma-secretase in HEK293 cells co-overexpressing APP Swedish mutant assessed as inhibition of amyloid beta 40 production at 1 uM by luciferase reporter gene assay relative to DAPT; assay type: cell-based; conditions: values are per cent of control
[2] = molecular target: T1, Gamma-secretase (Homo sapiens); assay: Inhibition of gamma-secretase in HEK293 cells co-overexpressing APP Swedish mutant assessed as inhibition of amyloid beta 42 production at 1 uM by luciferase reporter gene assay relative to DAPT; assay type: cell-based; conditions: values are per cent of control
[3] = molecular target: T1, Gamma-secretase (Homo sapiens); assay: Inhibition of gamma-secretase in HEK293 cells co-overexpressing NotchdeltaE assessed as inhibition of notch cleavage at 1 uM by luciferase reporter gene assay relative to DAPT; assay type: cell-based; conditions: for residual activity: values are per cent of control
[4] = molecular target: T1, Gamma-secretase (Homo sapiens); assay: Inhibition of gamma-secretase in HEK293 cells co-overexpressing NotchdeltaE assessed as inhibition of notch cleavage at 100 uM by luciferase reporter gene assay relative to DAPT; assay type: cell-based; conditions: values are per cent of control
[5] = molecular target: Gamma-secretase; assay: Inhibition of gamma-secretase in HEK293 cells co-overexpressing APP Swedish mutant assessed as inhibition of amyloid beta 40 production by luciferase reporter gene assay; assay type: cell-based, Homo sapiens
[6] = molecular target: Gamma-secretase; assay: Inhibition of gamma-secretase in HEK293 cells co-overexpressing APP Swedish mutant assessed as inhibition of amyloid beta 42 production by luciferase reporter gene assay; assay type: cell-based, Homo sapiens
[7] = molecular target: Gamma-secretase; assay: Inhibition of gamma-secretase in HEK293 cells co-overexpressing NotchdeltaE assessed as inhibition of notch cleavage by luciferase reporter gene assay; assay type: cell-based, Homo sapiens
[8] = molecular target: T1, Gamma-secretase (Homo sapiens); assay: Inhibition of gamma-secretase in HEK293 cells co-overexpressing APP Swedish mutant assessed as inhibition of amyloid beta 40 production at 100 uM by luciferase reporter gene assay relative to DAPT; assay type: cell-based; conditions: for residual activity: values are per cent of control
[9] = molecular target: T1, Gamma-secretase (Homo sapiens); assay: Inhibition of gamma-secretase in HEK293 cells co-overexpressing APP Swedish mutant assessed as inhibition of amyloid beta 42 production at 100 uM by luciferase reporter gene assay relative to DAPT; assay type: cell-based; conditions: for residual activity: values are per cent of control
[10] = molecular target: T1, Gamma-secretase (Homo sapiens); assay: Inhibition of gamma-secretase in HEK293 cells co-overexpressing NotchdeltaE assessed as inhibition of notch cleavage at 3 uM by luciferase reporter gene assay relative to DAPT; assay type: cell-based; conditions: values are per cent of control
[11] = molecular target: T1, Gamma-secretase (Homo sapiens); assay: Inhibition of gamma-secretase in HEK293 cells co-overexpressing NotchdeltaE assessed as inhibition of notch cleavage at 30 uM by luciferase reporter gene assay relative to DAPT; assay type: cell-based; conditions: values are per cent of control
[12] = molecular target: T1, Gamma-secretase (Homo sapiens); assay: Inhibition of gamma-secretase in HEK293 cells co-overexpressing APP Swedish mutant assessed as inhibition of amyloid beta 40 production at 3 uM by luciferase reporter gene assay relative to DAPT; assay type: cell-based; conditions: values are per cent of control
[13] = molecular target: T1, Gamma-secretase (Homo sapiens); assay: Inhibition of gamma-secretase in HEK293 cells co-overexpressing APP Swedish mutant assessed as inhibition of amyloid beta 40 production at 30 uM by luciferase reporter gene assay relative to DAPT; assay type: cell-based; conditions: values are per cent of control
[14] = molecular target: T1, Gamma-secretase (Homo sapiens); assay: Inhibition of gamma-secretase in HEK293 cells co-overexpressing APP Swedish mutant assessed as inhibition of amyloid beta 42 production at 3 uM by luciferase reporter gene assay relative to DAPT; assay type: cell-based; conditions: values are per cent of control
[15] = molecular target: T1, Gamma-secretase (Homo sapiens); assay: Inhibition of gamma-secretase in HEK293 cells co-overexpressing APP Swedish mutant assessed as inhibition of amyloid beta 42 production at 30 uM by luciferase reporter gene assay relative to DAPT; assay type: cell-based; conditions: values are per cent of control

residual activity [1] | residual activity [2] | residual activity [3] | residual activity [4] | IC50 [5] | IC50 [6] | IC50 [7] | residual activity [8] | residual activity [9] | SMILES | also measured
89.5% | 101% | 31.2% | 0% | – | – | – | – | – | CCC(Cc1ccc(OC)c(CNC(=O)c2ccc(C(F)(F)F)cc2)c1)C(=O)O (stereo unspecified) | –
– | – | – | – | 32.7 µM | 22.4 µM | > 100 µM | – | – | CC/C(=C\c1ccc(OC)c(C(=O)NCc2ccc(C(F)(F)F)cc2)c1)C(=O)O | –
104% | 102% | – | – | – | – | – | 112% | 104% | COc1ccc(CCC(=O)O)cc1CNC(=O)c1ccc(C(F)(F)F)cc1 | –
– | – | – | – | 215 µM | 82.5 µM | 53 µM | – | – | CSc1ccc(/C=C2/C(C)=C(CC(=O)O)c3cc(F)ccc32)cc1 [SULINDAC SULFIDE] | residual activity [10]: 90.7%; residual activity [11]: 43.9%; residual activity [12]: 98.4%; residual activity [13]: 88.6%; residual activity [14]: 97.1%; residual activity [15]: 60.3%
90.6% | 87.4% | 67.2% | 0% | – | – | – | 42.6% | 55.7% | CCC(Cc1ccc(F)c(C(=O)NCc2ccc(OC(F)(F)F)cc2)c1)C(=O)O (stereo unspecified) | –
77.6% | 63.3% | 53.8% | 38.5% | – | – | – | 13% | 0% | CCC(Cc1ccc(F)c(C(=O)NCc2ccc(C(F)(F)F)cc2)c1)C(=O)O (stereo unspecified) | –
89.8% | 99.7% | 6.3% | 6.8% | – | – | – | 63.2% | 106% | CCC(Cc1ccc(F)c(C(=O)NCc2ccc(Oc3ccccc3)cc2)c1)C(=O)O (stereo unspecified) | –
– | – | – | – | 37.8 µM | 34.2 µM | > 100 µM | – | – | CC[C@H](Cc1ccc(OC)c(C(=O)NCc2ccc(C(F)(F)F)cc2)c1)C(=O)O | inhibition [8]: Active; inhibition [9]: Active
103% | 103% | – | – | – | – | – | 119% | 145% | CCC(Cc1ccc(OC)c(CNC(=O)c2ccc(Oc3ccccc3)cc2)c1)C(=O)O (stereo unspecified) | –
118% | 119% | – | 84% | – | – | – | 136% | 133% | CCC(Cc1ccc(OC)c(CNC(=O)c2ccc(OCC(F)(F)F)cc2)c1)C(=O)O (stereo unspecified) | –
114% | 109% | – | – | – | – | – | 132% | 139% | COc1ccc(CC(C)C(=O)O)cc1CNC(=O)c1ccc(C(F)(F)F)cc1 (stereo unspecified) | –
82% | 88.5% | 102% | 8.9% | – | – | – | 41% | 15.2% | CCC(Cc1ccc(OC)c(C(=O)NCc2ccc(C(F)(F)F)cc2)c1)C(=O)O (stereo unspecified) | –
– | – | – | – | > 100 µM | > 100 µM | 24 µM | – | – | CC[C@@H](Cc1ccc(OC)c(C(=O)NCc2ccc(C(F)(F)F)cc2)c1)C(=O)O | inhibition [3]: Active
